{"source": "patent US5348968A", "about": "“Indole, indazole and benzisoxazole compounds” (Adir et Compagnie, priority 1993, dated 1994)", "key": {"5-HT1 receptor [1]": {"target": "5-HT1 receptor", "assay": "Contraction of the vena saphena isolated from rabbits", "design": "species or system rabbit", "conditions": "% of maximum effect induced by KCl, after phenoxybenzamine, cumulative doses 10^-9 to 10^-4 M, read-out: 50% effective concentration (EC50)", "method": "(§1) Contraction of the vena saphena\n(§2) Experiments are carried out on venae saphenae of dogs (10-25kg) or rabbits (2-3 kg) anesthetized with pentobarbital (30 mg/kg i.v.). The venae saphenae are rapidly removed and cut into rings. These rings are mounted between two hooks in tanks thermostatically controlled at 37° C. containing physiological solution (composition in mM: NaCl118.3; KCl 4.7; CaCl2 2.5; MgSO4 1.2; KH2 PO4 1.2; NaHCO3 25.0; Ca-EDTA 0.026 and glucose 11.1). A mixture of 95% O2 /5% CO2 is bubbled through the physiological solution. The lower hook constitutes the fixed point whereas the upper hook is connected to an isometric force sensor. The tissues are put under a base tension of 1.5 grams (dogs) and 1 gram (rabbits). The pharmacological substances studied are prepared immediately before use; they are dissolved in water or in dimethyl sulfoxide.\n(§3) After mounting, the preparations are left standing for 60 minutes, rinsings being carried out every 30 minutes. The organ is then brought into contact with phenoxybenzamine (5×10^-8 M) for 20 minutes. This agent is removed by several successive washings over 45 minutes. After readjusting the base tension, a contraction is caused by KCl (100 mM)."}, "5-HT1 receptor [2]": {"target": "T1, 5-HT1 receptor (Canis lupus familiaris, UniProt P79250)", "T1 construct": "The venae saphenae are rapidly removed and cut into rings; from tissue; host or cells: dog saphenous vein rings", "T1 sequence (P79250 whole entry)": "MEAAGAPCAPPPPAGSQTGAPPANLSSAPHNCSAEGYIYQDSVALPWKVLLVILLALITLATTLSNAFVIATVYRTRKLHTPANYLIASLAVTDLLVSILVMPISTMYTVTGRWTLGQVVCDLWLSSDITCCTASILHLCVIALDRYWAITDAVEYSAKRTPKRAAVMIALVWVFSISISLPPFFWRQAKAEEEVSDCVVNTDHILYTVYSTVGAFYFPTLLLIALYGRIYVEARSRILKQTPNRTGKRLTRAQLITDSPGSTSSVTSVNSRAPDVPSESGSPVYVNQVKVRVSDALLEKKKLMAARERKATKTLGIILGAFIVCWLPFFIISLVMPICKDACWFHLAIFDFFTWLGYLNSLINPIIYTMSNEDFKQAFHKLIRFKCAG", "assay": "Contraction of the vena saphena isolated from dogs", "design": "species or system dog", "conditions": "% of maximum effect induced by KCl, after phenoxybenzamine, cumulative doses 10^-9 to 10^-4 M, read-out: 50% effective concentration (EC50)", "method": "as §1, §2, §3"}}, "note": "Structures can show the parent of a compound that is named as a salt."}
{"molecule": "CCCN1CCC(Cc2c[nH]c3ccc(C(N)=O)cc23)C1", "note": "(centres unmarked) [Example 17, 3-[(1-Propylpyrrolidin-3-yl)methyl]-5-aminocarbonylindole, oxalate]", "values": [{"measurement": "EC50", "setting": "5-HT1 receptor [1]", "value": 410, "unit": "nM"}, {"measurement": "EC50", "setting": "5-HT1 receptor [2]", "value": 340, "unit": "nM"}]}
